Laboratory results published in the supplement of paper PMC11451515.

Tested on: P12-Ichikawa
Assay: cell viability relative to DMSO control; higher = less cytotoxic
Settings: 48 h
In short: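 NOMO1, SEM and P12-Ichikawa leukemia cells spent at least four passages adapting to each medium before use. They were seeded at 500 cells/well (NOMO1, SEM) or 1000 cells/well (P12-Ichikawa) in 5 μl in 1536-well plates and pin-dosed with library compounds in DMSO at 11 threefold steps from 47 μM down to 0.79 nM. After 48 h at 37°C, CellTiter-Glo One luminescence was read. Viability is reported as a percentage of the DMSO wells on each plate, with cell-free wells as background.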

[1] = HPLM + 10% dialyzed FBS, 0.000781 µM
[2] = HPLM + 10% dialyzed FBS, 0.00234 µM
[3] = HPLM + 10% dialyzed FBS, 0.00702 µM
[4] = HPLM + 10% dialyzed FBS, 0.0211 µM
[5] = HPLM + 10% dialyzed FBS, 0.0632 µM
[6] = HPLM + 10% dialyzed FBS, 0.19 µM
[7] = HPLM + 10% dialyzed FBS, 0.569 µM
[8] = HPLM + 10% dialyzed FBS, 1.71 µM
[9] = HPLM + 10% dialyzed FBS, 5.12 µM
[10] = HPLM + 10% dialyzed FBS, 15.4 µM
[11] = HPLM + 10% dialyzed FBS, 46.1 µM
[12] = RPMI 5 mM glucose + 10% FBS, 0.000781 µM
[13] = RPMI 5 mM glucose + 10% FBS, 0.00234 µM
[14] = RPMI 5 mM glucose + 10% FBS, 0.00702 µM
[15] = RPMI 5 mM glucose + 10% FBS, 0.0211 µM
[16] = RPMI 5 mM glucose + 10% FBS, 0.0632 µM
[17] = RPMI 5 mM glucose + 10% FBS, 0.19 µM
[18] = RPMI 5 mM glucose + 10% FBS, 0.569 µM
[19] = RPMI 5 mM glucose + 10% FBS, 1.71 µM
[20] = RPMI 5 mM glucose + 10% FBS, 5.12 µM
[21] = RPMI 5 mM glucose + 10% FBS, 15.4 µM
[22] = RPMI 5 mM glucose + 10% FBS, 46.1 µM
[23] = RPMI 5 mM glucose + 10% dialyzed FBS, 0.000781 µM
[24] = RPMI 5 mM glucose + 10% dialyzed FBS, 0.00234 µM
[25] = RPMI 5 mM glucose + 10% dialyzed FBS, 0.00702 µM
[26] = RPMI 5 mM glucose + 10% dialyzed FBS, 0.0211 µM
[27] = RPMI 5 mM glucose + 10% dialyzed FBS, 0.0632 µM
[28] = RPMI 5 mM glucose + 10% dialyzed FBS, 0.19 µM
[29] = RPMI 5 mM glucose + 10% dialyzed FBS, 0.569 µM
[30] = RPMI 5 mM glucose + 10% dialyzed FBS, 1.71 µM
[31] = RPMI 5 mM glucose + 10% dialyzed FBS, 5.12 µM
[32] = RPMI 5 mM glucose + 10% dialyzed FBS, 15.4 µM
[33] = RPMI 5 mM glucose + 10% dialyzed FBS, 46.1 µM

Structure (SMILES)	cell viability [1]	cell viability [2]	cell viability [3]	cell viability [4]	cell viability [5]	cell viability [6]	cell viability [7]	cell viability [8]	cell viability [9]	cell viability [10]	cell viability [11]	cell viability [12]	cell viability [13]	cell viability [14]	cell viability [15]	cell viability [16]	cell viability [17]	cell viability [18]	cell viability [19]	cell viability [20]	cell viability [21]	cell viability [22]	cell viability [23]	cell viability [24]	cell viability [25]	cell viability [26]	cell viability [27]	cell viability [28]	cell viability [29]	cell viability [30]	cell viability [31]	cell viability [32]	cell viability [33]
Cc1cccc(-c2nn(C(=S)Nc3ccccc3)cc2-c2ccnc3ccccc23)n1	115%	122%	120%	117%	117%	109%	113%	101%	109%	86.3%	78.3%	115%	123%	113%	124%	109%	117%	111%	100%	108%	91.4%	74.3%	121%	109%	122%	114%	118%	110%	119%	108%	98.9%	49%	73.1%
CC(=O)Nc1ccc([C@H](C)C(=O)Nc2ncc(C(C)C)s2)cc1	97.9%	101%	94.5%	98.4%	100%	92.1%	96.7%	94.4%	89.9%	24.6%	5.24%	95.6%	96.9%	101%	95.1%	93.3%	93.8%	97.6%	107%	101%	26%	6.22%	99.3%	89.5%	97.2%	99.5%	110%	101%	99.4%	99.7%	83.7%	22.8%	5.31%
Cc1cccc(C#Cc2ccccc2)n1	120%	128%	124%	124%	125%	122%	112%	121%	113%	117%	105%																						
CCN(CC)C(=S)SSC(=S)N(CC)CC	104%	106%	118%	120%	117%	109%	119%	122%	4.64%	10.4%	9.15%	103%	98.6%	112%	122%	119%	115%	115%	116%	4.29%	5.91%	4.43%	104%	105%	116%	115%	115%	112%	108%	115%	4%	3.98%	3.13%
